Data taken from ChEMBL document CHEMBL1152560, “Substituted 2-arylbenzothiazoles as kinase inhibitors: hit-to-lead optimization” (Bioorg Med Chem, 2009).

How the values were obtained:
[1] = molecular target: T1, Serine/threonine-protein kinase Nek2 (Homo sapiens) (UniProt P51955); experiment: Residual activity of NEK2 at 1 uM by microplate scintillation counting
T1 sequence (whole entry): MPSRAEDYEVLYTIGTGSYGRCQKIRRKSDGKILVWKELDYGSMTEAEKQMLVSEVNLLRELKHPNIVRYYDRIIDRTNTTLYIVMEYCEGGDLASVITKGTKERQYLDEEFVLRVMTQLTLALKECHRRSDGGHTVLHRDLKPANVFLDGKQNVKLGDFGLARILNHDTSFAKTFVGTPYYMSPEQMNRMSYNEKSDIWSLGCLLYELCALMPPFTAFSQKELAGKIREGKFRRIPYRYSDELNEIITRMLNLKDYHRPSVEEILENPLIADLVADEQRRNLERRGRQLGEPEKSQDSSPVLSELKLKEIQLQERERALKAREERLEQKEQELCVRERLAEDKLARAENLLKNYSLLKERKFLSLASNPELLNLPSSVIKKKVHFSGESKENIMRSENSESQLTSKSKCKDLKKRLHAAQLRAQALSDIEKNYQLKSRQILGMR

[2] = molecular target: MAP/microtubule affinity-regulating kinase 3 (Homo sapiens) (UniProt P27448); experiment: Residual activity of MARK3 at 0.1 uM by microplate scintillation counting
Chain of MAP/microtubule affinity-regulating kinase 3 (Homo sapiens) (P27448 whole entry, looked up): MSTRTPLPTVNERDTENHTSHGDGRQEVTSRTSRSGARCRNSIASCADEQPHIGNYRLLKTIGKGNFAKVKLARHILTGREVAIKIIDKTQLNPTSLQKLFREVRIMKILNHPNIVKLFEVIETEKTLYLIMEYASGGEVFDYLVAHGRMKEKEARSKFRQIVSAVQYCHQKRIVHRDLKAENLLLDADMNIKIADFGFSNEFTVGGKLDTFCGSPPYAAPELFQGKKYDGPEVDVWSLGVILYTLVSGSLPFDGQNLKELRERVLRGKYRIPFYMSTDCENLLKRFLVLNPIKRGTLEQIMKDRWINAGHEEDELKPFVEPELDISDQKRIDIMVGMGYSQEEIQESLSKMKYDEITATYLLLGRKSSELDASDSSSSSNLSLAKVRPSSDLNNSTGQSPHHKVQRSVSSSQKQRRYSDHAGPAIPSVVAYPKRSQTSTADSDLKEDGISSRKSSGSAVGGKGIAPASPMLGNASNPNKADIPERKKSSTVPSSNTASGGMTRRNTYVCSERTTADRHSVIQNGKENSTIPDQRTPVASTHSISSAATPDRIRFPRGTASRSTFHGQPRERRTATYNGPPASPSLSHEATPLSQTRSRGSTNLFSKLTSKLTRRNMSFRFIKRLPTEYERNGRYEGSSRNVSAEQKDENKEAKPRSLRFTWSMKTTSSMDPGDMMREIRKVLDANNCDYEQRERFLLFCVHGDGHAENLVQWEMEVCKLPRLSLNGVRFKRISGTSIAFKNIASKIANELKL

[3] = molecular target: Dual specificity tyrosine-phosphorylation-regulated kinase 1A (Homo sapiens) (UniProt Q13627); experiment: Residual activity of DYRK1A at 1 uM by microplate scintillation counting
[4] = molecular target: Homeodomain-interacting protein kinase 3 (Homo sapiens) (UniProt Q9H422); experiment: Residual activity of HIPK3 at 10 uM by microplate scintillation counting
[5] = molecular target: Fibroblast growth factor receptor 1 (Homo sapiens) (UniProt P11362); experiment: Residual activity of wild type FGF-R1 at 10 uM by microplate scintillation counting
[6] = molecular target: Serine/threonine-protein kinase pim-1 (Homo sapiens) (UniProt P11309); experiment: Residual activity of PIM1 at 1 uM by microplate scintillation counting
[7] = molecular target: Homeodomain-interacting protein kinase 1 (Homo sapiens) (UniProt Q86Z02); experiment: Residual activity of HIPK1 at 10 uM by microplate scintillation counting
[8] = molecular target: Cyclin-dependent kinase 2/cyclin E1 (Homo sapiens) (UniProt P24864+P24941); experiment: Residual activity of CDK2/Cyclin E at 1 uM by microplate scintillation counting; assay type: protein-complex assay
[9] = molecular target: T2, Inhibitor of nuclear factor kappa-B kinase subunit epsilon (Homo sapiens) (UniProt Q14164); experiment: Residual activity of IKKepsilon at 10 uM by microplate scintillation counting
T2 sequence (whole entry): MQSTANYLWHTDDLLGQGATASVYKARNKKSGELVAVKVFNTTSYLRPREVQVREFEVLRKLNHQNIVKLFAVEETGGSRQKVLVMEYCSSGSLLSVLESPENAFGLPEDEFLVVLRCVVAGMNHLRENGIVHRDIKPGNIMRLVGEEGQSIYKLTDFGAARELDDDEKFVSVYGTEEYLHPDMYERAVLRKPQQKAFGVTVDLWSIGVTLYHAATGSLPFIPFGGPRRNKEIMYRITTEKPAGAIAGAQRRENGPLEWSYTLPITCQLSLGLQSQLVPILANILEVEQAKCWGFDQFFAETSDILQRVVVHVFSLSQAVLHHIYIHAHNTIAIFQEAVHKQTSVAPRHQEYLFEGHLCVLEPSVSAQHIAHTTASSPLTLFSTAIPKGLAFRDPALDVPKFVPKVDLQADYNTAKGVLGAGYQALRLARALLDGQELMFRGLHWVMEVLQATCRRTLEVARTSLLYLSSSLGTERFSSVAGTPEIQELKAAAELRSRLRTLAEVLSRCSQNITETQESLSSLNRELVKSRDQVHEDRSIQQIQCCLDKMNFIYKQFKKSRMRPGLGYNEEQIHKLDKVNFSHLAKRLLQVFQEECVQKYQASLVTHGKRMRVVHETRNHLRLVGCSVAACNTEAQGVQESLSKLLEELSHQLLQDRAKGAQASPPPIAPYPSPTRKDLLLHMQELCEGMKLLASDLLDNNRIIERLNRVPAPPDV

[10] = molecular target: Serine/threonine-protein kinase 33 (Homo sapiens) (UniProt Q9BYT3); experiment: Residual activity of STK33 at 10 uM by microplate scintillation counting
Chain of Serine/threonine-protein kinase 33 (Homo sapiens) (Q9BYT3 whole entry, looked up): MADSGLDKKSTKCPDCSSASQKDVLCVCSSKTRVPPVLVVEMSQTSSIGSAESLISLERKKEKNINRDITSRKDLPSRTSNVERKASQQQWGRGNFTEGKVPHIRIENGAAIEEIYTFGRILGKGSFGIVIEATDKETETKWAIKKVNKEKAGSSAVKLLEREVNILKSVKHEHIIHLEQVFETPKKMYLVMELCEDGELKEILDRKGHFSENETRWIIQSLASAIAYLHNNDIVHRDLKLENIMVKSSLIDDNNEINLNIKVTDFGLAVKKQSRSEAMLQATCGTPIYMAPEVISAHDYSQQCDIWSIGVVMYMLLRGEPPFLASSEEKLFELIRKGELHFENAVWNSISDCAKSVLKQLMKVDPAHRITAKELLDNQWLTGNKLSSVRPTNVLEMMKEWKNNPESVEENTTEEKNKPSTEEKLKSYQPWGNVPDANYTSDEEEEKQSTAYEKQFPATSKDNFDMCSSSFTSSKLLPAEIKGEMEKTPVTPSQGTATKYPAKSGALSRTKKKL

[11] = molecular target: Serine/threonine-protein kinase MARK1 (Homo sapiens) (UniProt Q9P0L2); experiment: Residual activity of MARK1 at 0.1 uM by microplate scintillation counting
Chain of Serine/threonine-protein kinase MARK1 (Homo sapiens) (Q9P0L2 whole entry, looked up): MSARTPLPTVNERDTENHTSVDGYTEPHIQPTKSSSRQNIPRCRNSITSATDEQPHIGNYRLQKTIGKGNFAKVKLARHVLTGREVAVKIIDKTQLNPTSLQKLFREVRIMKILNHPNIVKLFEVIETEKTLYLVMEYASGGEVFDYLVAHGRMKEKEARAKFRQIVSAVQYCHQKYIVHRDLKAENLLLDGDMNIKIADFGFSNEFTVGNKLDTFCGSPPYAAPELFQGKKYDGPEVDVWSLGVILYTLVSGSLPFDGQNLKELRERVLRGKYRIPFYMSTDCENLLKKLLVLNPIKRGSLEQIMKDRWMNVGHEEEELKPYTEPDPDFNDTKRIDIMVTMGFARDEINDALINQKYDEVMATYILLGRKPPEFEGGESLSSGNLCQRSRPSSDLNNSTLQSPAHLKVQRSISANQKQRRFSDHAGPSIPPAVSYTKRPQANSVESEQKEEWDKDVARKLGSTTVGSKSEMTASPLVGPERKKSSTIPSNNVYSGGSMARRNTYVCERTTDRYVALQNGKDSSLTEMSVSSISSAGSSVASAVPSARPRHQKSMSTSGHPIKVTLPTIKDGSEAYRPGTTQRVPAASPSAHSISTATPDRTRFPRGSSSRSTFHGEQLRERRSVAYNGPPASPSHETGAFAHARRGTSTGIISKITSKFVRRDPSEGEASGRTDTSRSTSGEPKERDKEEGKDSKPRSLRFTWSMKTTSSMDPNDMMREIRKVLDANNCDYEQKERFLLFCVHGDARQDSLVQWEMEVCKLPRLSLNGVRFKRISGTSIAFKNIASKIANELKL

[12] = molecular target: Ephrin type-A receptor 5 (Homo sapiens) (UniProt P54756); experiment: Residual activity of EPHA5 at 0.1 uM by microplate scintillation counting
[13] = molecular target: Casein kinase II subunit alpha (Homo sapiens) (UniProt P68400); experiment: Residual activity of CK2alpha1 at 0.1 uM by microplate scintillation counting
Chain of Casein kinase II subunit alpha (Homo sapiens) (P68400 whole entry, looked up): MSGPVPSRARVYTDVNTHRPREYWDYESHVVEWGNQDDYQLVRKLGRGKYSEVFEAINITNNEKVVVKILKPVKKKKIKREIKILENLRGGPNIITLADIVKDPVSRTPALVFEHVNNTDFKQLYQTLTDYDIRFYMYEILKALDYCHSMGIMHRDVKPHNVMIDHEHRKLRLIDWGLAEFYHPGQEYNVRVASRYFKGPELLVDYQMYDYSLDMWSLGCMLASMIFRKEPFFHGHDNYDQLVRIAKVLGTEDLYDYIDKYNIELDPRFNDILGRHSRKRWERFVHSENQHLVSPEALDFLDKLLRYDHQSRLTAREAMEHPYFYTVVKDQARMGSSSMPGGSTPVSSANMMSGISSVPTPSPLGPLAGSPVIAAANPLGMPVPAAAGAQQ

[14] = molecular target: T3, Beta-adrenergic receptor kinase 1 (Homo sapiens) (UniProt P25098); experiment: Residual activity of GRK2 at 0.1 uM by microplate scintillation counting
T3 sequence (whole entry): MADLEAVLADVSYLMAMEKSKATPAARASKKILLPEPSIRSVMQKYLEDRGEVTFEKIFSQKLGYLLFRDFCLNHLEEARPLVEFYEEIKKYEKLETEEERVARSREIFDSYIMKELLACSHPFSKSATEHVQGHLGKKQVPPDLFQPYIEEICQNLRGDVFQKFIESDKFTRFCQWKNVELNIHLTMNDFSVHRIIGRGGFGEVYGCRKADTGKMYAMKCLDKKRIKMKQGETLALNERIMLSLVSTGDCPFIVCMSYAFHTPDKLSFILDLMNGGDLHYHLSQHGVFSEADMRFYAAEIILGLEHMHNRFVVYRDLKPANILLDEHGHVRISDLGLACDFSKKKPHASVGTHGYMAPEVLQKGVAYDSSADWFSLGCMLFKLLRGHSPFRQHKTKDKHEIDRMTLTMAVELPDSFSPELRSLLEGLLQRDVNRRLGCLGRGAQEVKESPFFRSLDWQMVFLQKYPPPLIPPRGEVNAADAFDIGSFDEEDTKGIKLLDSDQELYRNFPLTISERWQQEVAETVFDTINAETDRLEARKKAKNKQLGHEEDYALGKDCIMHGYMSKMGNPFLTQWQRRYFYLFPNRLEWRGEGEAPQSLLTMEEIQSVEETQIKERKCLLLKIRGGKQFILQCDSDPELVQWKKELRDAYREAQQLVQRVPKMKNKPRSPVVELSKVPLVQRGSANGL

[15] = molecular target: ALK tyrosine kinase receptor (Homo sapiens) (UniProt Q9UM73); experiment: Residual activity of ALK at 0.1 uM by microplate scintillation counting
Chain of ALK tyrosine kinase receptor (Homo sapiens) (Q9UM73 19-1620 limits assumed): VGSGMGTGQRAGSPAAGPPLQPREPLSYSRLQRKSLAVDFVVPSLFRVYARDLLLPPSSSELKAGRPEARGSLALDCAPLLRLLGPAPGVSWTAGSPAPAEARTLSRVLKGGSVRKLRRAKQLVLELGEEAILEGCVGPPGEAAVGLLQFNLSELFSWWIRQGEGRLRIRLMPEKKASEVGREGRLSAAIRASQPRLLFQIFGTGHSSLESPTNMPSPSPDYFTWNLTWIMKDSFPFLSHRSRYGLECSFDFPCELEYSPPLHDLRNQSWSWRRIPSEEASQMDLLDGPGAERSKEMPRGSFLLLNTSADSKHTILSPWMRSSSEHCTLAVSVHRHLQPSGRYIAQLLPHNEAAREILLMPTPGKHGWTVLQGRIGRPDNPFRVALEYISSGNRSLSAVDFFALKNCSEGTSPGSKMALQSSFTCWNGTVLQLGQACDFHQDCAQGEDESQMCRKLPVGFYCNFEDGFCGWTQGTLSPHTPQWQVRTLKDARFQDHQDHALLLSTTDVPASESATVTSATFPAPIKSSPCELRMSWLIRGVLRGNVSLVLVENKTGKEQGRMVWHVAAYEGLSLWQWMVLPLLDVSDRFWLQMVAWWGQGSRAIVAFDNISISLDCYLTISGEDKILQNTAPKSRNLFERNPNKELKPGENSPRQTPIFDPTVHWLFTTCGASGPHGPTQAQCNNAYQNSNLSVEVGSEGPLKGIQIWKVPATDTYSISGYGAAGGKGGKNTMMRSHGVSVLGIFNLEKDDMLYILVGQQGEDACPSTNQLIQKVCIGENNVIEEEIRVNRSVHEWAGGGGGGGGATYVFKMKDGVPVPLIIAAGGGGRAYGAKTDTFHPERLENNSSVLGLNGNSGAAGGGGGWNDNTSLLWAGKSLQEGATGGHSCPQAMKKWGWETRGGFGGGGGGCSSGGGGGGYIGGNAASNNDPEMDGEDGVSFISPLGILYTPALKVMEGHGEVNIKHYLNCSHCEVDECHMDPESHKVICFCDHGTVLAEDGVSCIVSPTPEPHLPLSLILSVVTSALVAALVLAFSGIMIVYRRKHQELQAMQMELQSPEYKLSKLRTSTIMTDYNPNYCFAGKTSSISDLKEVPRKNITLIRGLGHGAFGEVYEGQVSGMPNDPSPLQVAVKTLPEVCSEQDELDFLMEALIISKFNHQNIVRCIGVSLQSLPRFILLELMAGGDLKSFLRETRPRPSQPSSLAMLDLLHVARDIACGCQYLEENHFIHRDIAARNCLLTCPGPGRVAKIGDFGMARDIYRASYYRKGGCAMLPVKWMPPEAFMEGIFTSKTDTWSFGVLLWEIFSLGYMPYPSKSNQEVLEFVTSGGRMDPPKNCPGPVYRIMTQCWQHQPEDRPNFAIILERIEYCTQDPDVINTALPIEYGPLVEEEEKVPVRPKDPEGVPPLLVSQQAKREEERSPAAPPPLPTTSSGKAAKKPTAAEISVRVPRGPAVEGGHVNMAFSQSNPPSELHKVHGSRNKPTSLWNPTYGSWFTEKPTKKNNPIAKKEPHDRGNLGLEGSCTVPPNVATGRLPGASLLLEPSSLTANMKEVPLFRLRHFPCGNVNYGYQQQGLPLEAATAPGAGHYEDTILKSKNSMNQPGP

[16] = molecular target: Hepatocyte growth factor receptor (Homo sapiens) (UniProt P08581); experiment: Residual activity of MET at 10 uM by microplate scintillation counting
[17] = molecular target: Protein-tyrosine kinase 2-beta (Homo sapiens) (UniProt Q14289); experiment: Residual activity of PYK2 at 10 uM by microplate scintillation counting
Chain of Protein-tyrosine kinase 2-beta (Homo sapiens) (Q14289 whole entry, looked up): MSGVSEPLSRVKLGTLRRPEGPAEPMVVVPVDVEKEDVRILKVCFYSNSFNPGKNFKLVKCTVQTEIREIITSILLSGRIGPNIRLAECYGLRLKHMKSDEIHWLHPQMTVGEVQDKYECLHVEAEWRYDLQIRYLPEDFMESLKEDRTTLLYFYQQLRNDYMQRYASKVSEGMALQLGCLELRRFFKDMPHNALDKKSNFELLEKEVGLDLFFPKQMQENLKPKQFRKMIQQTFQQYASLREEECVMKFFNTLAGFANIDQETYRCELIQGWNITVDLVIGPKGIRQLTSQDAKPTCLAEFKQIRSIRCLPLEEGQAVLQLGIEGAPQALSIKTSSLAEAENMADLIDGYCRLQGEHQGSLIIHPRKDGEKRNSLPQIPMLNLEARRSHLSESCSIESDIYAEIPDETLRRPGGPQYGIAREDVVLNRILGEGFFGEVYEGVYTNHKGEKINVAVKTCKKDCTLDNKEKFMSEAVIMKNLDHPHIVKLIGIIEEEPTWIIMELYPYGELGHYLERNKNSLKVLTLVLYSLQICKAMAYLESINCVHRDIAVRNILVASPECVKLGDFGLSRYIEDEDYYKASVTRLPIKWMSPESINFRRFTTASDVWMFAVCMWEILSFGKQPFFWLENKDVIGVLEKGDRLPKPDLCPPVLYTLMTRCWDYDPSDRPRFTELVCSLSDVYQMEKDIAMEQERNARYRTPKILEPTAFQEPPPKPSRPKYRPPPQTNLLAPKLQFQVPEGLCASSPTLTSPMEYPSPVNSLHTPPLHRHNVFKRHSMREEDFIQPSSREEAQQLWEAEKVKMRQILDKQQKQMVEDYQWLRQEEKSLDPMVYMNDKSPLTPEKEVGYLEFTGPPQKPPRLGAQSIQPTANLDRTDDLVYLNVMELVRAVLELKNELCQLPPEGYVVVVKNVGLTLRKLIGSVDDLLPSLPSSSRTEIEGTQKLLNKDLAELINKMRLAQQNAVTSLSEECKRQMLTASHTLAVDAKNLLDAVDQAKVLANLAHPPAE

Structure (SMILES)	residual activity [1] [%]	residual activity [2] [%]	residual activity [3] [%]	residual activity [4] [%]	residual activity [5] [%]	residual activity [6] [%]	residual activity [7] [%]	residual activity [8] [%]	residual activity [9] [%]	residual activity [10] [%]	residual activity [11] [%]	residual activity [12] [%]	residual activity [13] [%]	residual activity [14] [%]	residual activity [15] [%]	residual activity [16] [%]	residual activity [17] [%]
COc1cc2c(Oc3ccc(-c4nc5ccccc5s4)cc3)ncnc2cc1OCCCN1CCN(C)CC1	81	92	93	132	157	109	132	102	101	81	98	81	95	95	106	12	95
COc1cc2c(Oc3ccc(-c4nc5ccccc5s4)cc3)ncnc2cc1OCCCN1CCCC1	89	84	92	147	124	104	103	94	99	107	90	103	132	95	102	17	113
COc1cc2c(Oc3ccc(-c4nc5ccccc5s4)cc3F)ncnc2cc1OCCCN1CCN(C)CC1	89	87	91	142	47	102	142	94	76	94	91	97	87	89	114	8	54
